Experimental data: patent US5985885A, “Quinazoline-4-amino-2-(piperidine-1-yl-4-substituted) derivatives having antihypertensive activity, a method for their preparation and their pharmaceutical use” (priority 1996, dated 1999)
Like-named read-outs stand apart in the source and are kept apart here.

Assays:
[1] = target: T1, 5-HT2 receptors (isolated rabbit aorta) (Oryctolagus cuniculus, UniProt G1SYA7); assay: Antagonism of serotonin-induced contraction of isolated rabbit aorta
T1 construct: Four rings formed from rabbit aorta were joined together to form a chain; from tissue; host or cells: isolated rabbit aorta rings
T1 sequence (G1SYA7 1-469): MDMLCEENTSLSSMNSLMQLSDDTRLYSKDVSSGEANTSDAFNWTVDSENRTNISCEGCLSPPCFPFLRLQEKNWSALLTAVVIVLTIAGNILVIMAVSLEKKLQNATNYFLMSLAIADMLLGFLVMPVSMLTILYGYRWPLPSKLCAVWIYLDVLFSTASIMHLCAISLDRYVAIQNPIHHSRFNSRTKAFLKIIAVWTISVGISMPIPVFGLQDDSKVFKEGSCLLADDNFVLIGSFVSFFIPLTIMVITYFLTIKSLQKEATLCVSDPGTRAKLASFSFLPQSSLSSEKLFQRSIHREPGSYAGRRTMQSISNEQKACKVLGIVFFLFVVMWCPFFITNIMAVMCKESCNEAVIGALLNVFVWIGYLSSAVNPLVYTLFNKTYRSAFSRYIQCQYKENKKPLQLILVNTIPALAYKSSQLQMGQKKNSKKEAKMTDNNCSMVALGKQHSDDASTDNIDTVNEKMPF
Description: The antagonist activity of some of the compounds of the invention on the contractile activity of seratonin on isolated rabbit aorta, effected principally by way of the 5-HT2 receptors, is reported here by way of example. The method of Feniuk et al [Br. J. Pharmacol. (1985), 86, 697-704] was used, with slight modifications. Four rings formed from rabbit aorta were joined together to form a chain; the preparation was placed in an isolated organ bath in the presence of Krebs at 37° C. and attached to an isometric transducer, a tension of 2 g being applied and oxygenation was carried out continuously with O2 --CO2 (95-5 v/v). A seratonin concentration(0.3 μM) was used that was capable of causing sub-maximal contraction of the preparation. […] The results obtained in this way are given in Table 4 below which, for several of the compounds of the invention gives IC50 values calculated by the regression method on a set of at least 2 experiments at 5 different concentrations for each of the compounds examined, these being compared with values obtained for several reference compounds.

[2] = target: T2, alpha1B adrenergic receptor (rat liver) (Rattus norvegicus, UniProt P15823); assay: [3H]-prazosin binding in rat liver
T2 sequence (P15823 1-515): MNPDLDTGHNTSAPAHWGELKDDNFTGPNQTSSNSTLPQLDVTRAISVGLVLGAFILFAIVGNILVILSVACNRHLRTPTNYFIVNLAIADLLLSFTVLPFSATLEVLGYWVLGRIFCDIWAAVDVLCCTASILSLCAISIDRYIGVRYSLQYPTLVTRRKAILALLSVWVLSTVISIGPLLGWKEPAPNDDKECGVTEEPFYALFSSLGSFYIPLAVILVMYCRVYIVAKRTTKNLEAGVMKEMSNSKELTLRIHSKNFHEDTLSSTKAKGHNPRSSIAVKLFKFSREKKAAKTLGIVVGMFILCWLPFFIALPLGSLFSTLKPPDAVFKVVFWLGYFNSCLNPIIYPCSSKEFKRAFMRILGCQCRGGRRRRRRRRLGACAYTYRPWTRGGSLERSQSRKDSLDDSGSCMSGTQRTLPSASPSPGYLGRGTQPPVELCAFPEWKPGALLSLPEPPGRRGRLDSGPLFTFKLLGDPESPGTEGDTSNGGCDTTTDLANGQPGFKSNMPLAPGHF

[3] = test system: spontaneously hypertensive (SHR) rat; assay: Anti-hypertensive activity in the spontaneously hypertensive (SHR) rat (oral); format: in vivo; conditions: for ED20: Rattus norvegicus, 2 h, 0-120 min, NC: not calculable, read-out: Systolic pressure ED20 (0-120 min)
From the text: Animals having a mean basal systolic pressure of not less than 180 mmHg were used.

[4] = target: T3, alpha1A adrenergic receptor (rat GSM) (Rattus norvegicus, UniProt P43140); assay: [3H]-prazosin binding in rat submaxillary glands (GSM); conditions: alpha1A subtype, pH 7.4, 45 min, 25° C., read-out: Inhibition of the binding of [3H]-prazosin IC50
T3 sequence (P43140 1-466): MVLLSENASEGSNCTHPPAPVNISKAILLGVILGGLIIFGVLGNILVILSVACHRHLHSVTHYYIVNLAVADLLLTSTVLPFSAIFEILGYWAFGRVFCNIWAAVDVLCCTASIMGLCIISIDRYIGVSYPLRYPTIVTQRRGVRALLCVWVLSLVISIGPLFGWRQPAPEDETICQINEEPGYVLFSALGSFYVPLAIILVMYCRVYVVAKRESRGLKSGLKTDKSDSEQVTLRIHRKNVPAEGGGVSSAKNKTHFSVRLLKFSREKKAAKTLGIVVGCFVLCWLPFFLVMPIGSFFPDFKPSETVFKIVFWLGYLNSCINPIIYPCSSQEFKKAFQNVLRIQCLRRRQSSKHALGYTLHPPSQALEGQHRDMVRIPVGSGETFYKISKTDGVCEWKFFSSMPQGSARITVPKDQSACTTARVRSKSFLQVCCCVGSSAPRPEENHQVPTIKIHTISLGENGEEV

[5] = target: alpha1A + alpha1C adrenergic receptor (human prostate); assay: [3H]-prazosin binding in human prostate; conditions: alpha1A + alpha1C subtype, pH 7.5, 30 min, 25° C., read-out: Inhibition of the binding of [3H]-prazosin IC50
[6] = test system: anaesthetised normotensive rat; assay: Hypotensive activity in the anaesthetised normotensive rat (IV); format: in vivo; conditions: Rattus norvegicus, IV bolus, read-out: Reduction in mean arterial pressure ED30
Description: In order to evaluate the in vivo activity, some of the compounds of the invention were administered (IV) in bolus form to the normotensive rat anaesthetised with urethane plus ketamine. The compounds were administered in at least three doses in experiments performed in duplicate so as to enable the calculation of ED30 values, that is, the dose in mg/kg that reduces the mean basal arterial pressure by 30%. The compounds of the invention, and several reference standards, were dissolved in dilute hydrochloric acid at a physiologically acceptable pH, and physiological solution was administered in a volume of 3 ml/kg. Evaluations were made at two time periods, that is, the intervals 0-30 min and 30-60 min after administration.

[7] = isolated rabbit aorta, 37° C., compound 10 min before agonist, limits (p < 0.05)
[8] = read-out: Inhibitory effect (IC50) on the contraction caused by 0.3 μM serotonin, isolated rabbit aorta, 37° C., compound 10 min before agonist, limits (p < 0.05)
[9] = read-out: Inhibition of the binding of [3H]-prazosin IC50, rat liver, alpha1B subtype

SMILES | IC50 [1, 7] | IC50 [2] | Cardiac frequency, max effect at 3 mg/kg [3] | Systolic pressure, max effect at 3 mg/kg [3] | IC50 [4] | IC50 [5] | ED30 ([6]; 0.5 h, interval 0-30 min) | ED30 ([6]; 1 h, interval 30-60 min) | IC50 [1, 8] | IC50 [2, 9] | ED20 [3] | IC50 ([1]; rabbit aorta, 0.3 μM serotonin, conversion of 3.1 μg/ml, read-out: IC50, 5-HT2 antagonist activity) | times less than ketanserine (IC50) ([1]; rabbit aorta, versus ketanserine IC50 0.09 μg/ml) | anti-hypertensive action (in words) [3]
COc1cc2nc(N3CCC(c4ccccc4)CC3)nc(N)c2cc1OC [Compound 1] | 16500 nM | 13 nM | -0.8 % vs basal | -7.5 % vs basal | 6.1 nM | 2 nM | 0.19 mg/kg | 0.31 mg/kg |  |  |  |  |  | 
COc1cc2nc(N3CCC(c4ccccc4OC)CC3)nc(N)c2cc1OC [Compound 2] | 37300 nM | 7.7 nM | +2.1 % vs basal | -6.4 % vs basal | 18.8 nM | 7.8 nM | 0.5 mg/kg | 0.55 mg/kg |  |  |  |  |  | 
CCOc1ccccc1C1CCN(c2nc(N)c3cc(OC)c(OC)cc3n2)CC1 [Compound 3] |  |  |  |  | 10.7 nM | 10.8 nM | 0.32 mg/kg | 0.35 mg/kg | 73400 nM | 14 nM |  |  |  | 
COc1cc2nc(N3CCC(c4ccco4)CC3)nc(N)c2cc1OC [Compound 4] |  |  | +0.6 % vs basal | -15.5 % vs basal | 3.1 nM | 3.8 nM | 0.08 mg/kg | 0.1 mg/kg | 32700 nM | 1.7 nM | 13.1 mg/kg |  |  | 
COc1cc2nc(N3CCC(c4ccc(C)o4)CC3)nc(N)c2cc1OC [Compound 5] | 8410 nM | 2.1 nM | -0.2 % vs basal | -22.1 % vs basal | 3.5 nM | 1.7 nM | 0.03 mg/kg | 0.03 mg/kg |  |  | 2 mg/kg | 7600 nM | approximately 30 times | about as powerful as prazosin
